Assays:
Ba/F3-c-KIT(D816V) = assay: Proliferation inhibitory activity on Ba/F3 cell (CellTiter-Glo, 72 hours), c-KIT(D816V); assay type: cell-based; conditions: Mus musculus, BaF3, read-out: Ba/F3 (nM) c-KIT (D816V) (GI50 class)
Outline: (§1)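 Ba/F3 lines (TEL-PDGFRα WT, TEL-PDGFRβ WT, c-KIT D816V, V560G/D816V, D814Y) were seeded at 3×10^3 cells/well and exposed to 12-point, 3-fold dilutions (final 0.00005-10 μM) for 72 h at 37 °C. CellTiter-Glo signal was read after about 10 min mixing; GI50 (nM) was calculated relative to vehicle.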

Ba/F3-TEL-PDGFβ(WT) = assay: Proliferation inhibitory activity on Ba/F3 cell (CellTiter-Glo, 72 hours), PDGFR-β; assay type: cell-based; conditions: Mus musculus, BaF3, read-out: Ba/F3 (nM) Tel-PDGFRβ (GI50 class)
Outline: as §1

human PDGFR-β(wt) = target: T1, human PDGFR-β(wt) (Homo sapiens, UniProt P09619); assay: Enzyme inhibitory activity, ADP-Glo kinase assay, PDGFR-β(wt); assay type: biochemical; conditions: read-out: PDGFR-β (IC50 class)
T1 construct: purchased Signalchem P13-11G
Outline: (§2)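 Purified human kinases incubated with ATP and substrate 1–2 h at 25 °C in 40 mM Tris-HCl pH 7.4, 20 mM MgCl2, BSA, DTT, compound over 12 concentrations (10–0.00005645 μM final). ADP formed quantified by ADP-Glo luminescence; IC50 from inhibition versus DMSO control, reported in bins A–D.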

c-KIT D816V [1] = target: T2, c-KIT D816V (Homo sapiens, UniProt P10721, D816V); assay: Enzyme inhibitory activity, ADP-Glo kinase assay, c-KIT(D816V); assay type: biochemical; set-up: purchased Signalchem C06-12LG; conditions: read-out: c-KIT (D816V) (IC50 class)
Description: (§3) In order to evaluate the inhibitory activity of the compounds synthesized according to the above examples on PDGFR-α(wt), PDGFR-β(wt), c-KIT(wt), and c-KIT(D816V) kinases, the following method was performed. The compounds of examples were reacted with purified human PDGFR-α(wt) (Signalchem #P12-18G) enzyme, human PDGFR-β(wt) (Signalchem #P13-11G) enzyme, human c-KIT(wt) (Signalchem #K06-11BG) enzyme, human c-KIT(D816V) (Signalchem #C06-12LG) enzyme, and the enzyme inhibitory abilities were evaluated by the following method.
(§4) The reaction buffer was used as a composition of 40 mM Tris-HCl pH7.4, 20 mM MgCl2, 0.5 mg/ml BSA, 50 μM DTT, and the reactions of all the tests were carried out on the reaction buffer. The compound was diluted in 12 steps using a serial dilution method from a 10 mM DMSO stock, and the enzyme activity was measured at a final compound concentration of 10˜0.00005645 μM. During the test, the enzyme activity was confirmed using in vitro ADP-Glo™ kinase assay (Promega) after reacting with the proper concentration of human PDGFR-α(wt) enzyme, human PDGFR-β(wt), human c-KIT(wt) enzyme, and human c-KIT(D816V) enzyme with purified ATP and enzyme substrate at 25° C. for 1˜2 hours. At a ratio of 2:2:1, an enzyme-active reaction solution, an ADP-Glo reaction solution, and an enzyme-active detection solution were reacted to measure the inhibition of the enzyme's activity with luminoscence. Based on the […] of the enzyme activity of the solvent control that was not treated with the compound, the degree of enzyme activity inhibition was calculated according to the treatment concentration of each compound, and the concentration of each compound that inhibits 50% of enzyme activity was determined as IC50 (nM) value and the value was obtained by using GraphPad Prism 8.3.0 (GraphPad software Inc., San Diego) software. (A: IC50≤50 nM; B: 50 nM<IC50≤100 nM; C: 100 nM<IC50≤500 nM; D: IC50>500 nM).

human c-KIT(wt) = target: T3, human c-KIT(wt) (Homo sapiens, UniProt P10721); assay: Enzyme inhibitory activity, ADP-Glo kinase assay, c-KIT(wt); assay type: biochemical; conditions: read-out: c-KIT (WT) (IC50 class)
T3 construct: purchased Signalchem K06-11BG
Description: as §3, §4

human PDGFR-α(wt) = target: T4, human PDGFR-α(wt) (Homo sapiens, UniProt P16234); assay: Enzyme inhibitory activity, ADP-Glo kinase assay, PDGFR-α(wt); assay type: biochemical; conditions: read-out: PDGFR-α (IC50 class)
T4 construct: purchased Signalchem P12-18G
Outline: as §2

Ba/F3-TEL-PDGFRα(WT) = assay: Proliferation inhibitory activity on Ba/F3 cell (CellTiter-Glo, 72 hours), PDGFR-α; assay type: cell-based; conditions: Mus musculus, BaF3, read-out: Ba/F3 (nM) Tel-PDGFRα (GI50 class)
Outline: as §1

c-KIT V560G/D816V = assay: Proliferation inhibitory activity on Ba/F3 cell (CellTiter-Glo, 72 hours), c-KIT V560G/D816V; assay type: cell-based; conditions: Mus musculus, BaF3, c-KIT V560G/D816V cells, read-out: Cell (nM) c-KIT V560G/D816V (GI50 class)
Outline: as §1

various kinases = assay: Inhibitory activity against various kinases, DiscoverX scanMAX Kinase panel, % control at 1 μM; assay type: binding
Description: The activities of the compounds according to the present disclosure on various enzymes were evaluated. Specifically, it was commissioned DiscoverX to measure enzyme selectivity for the compounds of Examples 3, 9, and 83 above, and the experiment was conducted using a panel for scanMAX™ Kinase analysis. Herein, a solution prepared by dissolving in DMSO at a concentration of 1 μM was used as the drug treated with the enzyme, and the control percentage (% control) was determined by the method of Equation 1 below, and the results are shown in Table 8 below.
Herein, when the calculated percentage value for each enzyme was less than 35%, it was determined to have inhibitory activity for the enzyme. Accordingly, among the series of enzymes tested, the enzymes showing the inhibitory activities of the compounds of the present disclosure are summarized and shown in Table 8 below along with the control percentages thereof. (©): less than 10%; ◯: 10% or more to less than 35%).

c-KIT D814Y = assay: Proliferation inhibitory activity on Ba/F3 cell (CellTiter-Glo, 72 hours), c-KIT D814Y; assay type: cell-based; conditions: Mus musculus, BaF3, c-KIT D814Y cells, read-out: Cell (nM) c-KIT D814Y (GI50 class)
Description: Ba/F3-TEL-PDGFRα(WT), Ba/F3-TEL-PDGFβ(WT), Ba/F3-c-KIT(D816V) (Kyinno, #KC-0138), c-KIT V560G/D816V, c-KIT D814Y were seeded at 3×10^3/100 μl/well in a clear bottom white 96-well plate. A culture solution containing compounds of 12 concentrations (0.00001-2 mM) serially diluted in 3 folds and the DMSO control group was added at 0.5 μl/well each to a final concentration of 0.00005-10 μM, and then incubated in a CO2 incubator at 37° C. for 72 hours. After 72 hours, the plate treated with the compound was taken out, CellTiter-Glo® Assay (Promega) solution was treated with 100 μl/well, followed by mixing well. After mixing well for about 10 minutes at room temperature, […] was measured using a microplate reader. The data were presented as percentages in proportion to treated cells based on the vehicle, GI50 (nM) values were calculated using GraphPad Prism 8.3.0 (GraphPad software Inc., San Diego).
The inhibitory activities of Ba/F3 expressing PDGFR-α, PDGFR-β, c-KIT(D816V), c-KIT V560G/D816V, and c-KIT D814Y measured as described above were measured and shown in Table 7 below (A: GI50≤200 nM; B: 200 nM<GI50≤500 nM; C: GI50>500 nM).

c-KIT D816V [2] = target: T2, c-KIT D816V; conditions: background art; cited from earlier work

T2 sequence (P10721 26-976 D816V): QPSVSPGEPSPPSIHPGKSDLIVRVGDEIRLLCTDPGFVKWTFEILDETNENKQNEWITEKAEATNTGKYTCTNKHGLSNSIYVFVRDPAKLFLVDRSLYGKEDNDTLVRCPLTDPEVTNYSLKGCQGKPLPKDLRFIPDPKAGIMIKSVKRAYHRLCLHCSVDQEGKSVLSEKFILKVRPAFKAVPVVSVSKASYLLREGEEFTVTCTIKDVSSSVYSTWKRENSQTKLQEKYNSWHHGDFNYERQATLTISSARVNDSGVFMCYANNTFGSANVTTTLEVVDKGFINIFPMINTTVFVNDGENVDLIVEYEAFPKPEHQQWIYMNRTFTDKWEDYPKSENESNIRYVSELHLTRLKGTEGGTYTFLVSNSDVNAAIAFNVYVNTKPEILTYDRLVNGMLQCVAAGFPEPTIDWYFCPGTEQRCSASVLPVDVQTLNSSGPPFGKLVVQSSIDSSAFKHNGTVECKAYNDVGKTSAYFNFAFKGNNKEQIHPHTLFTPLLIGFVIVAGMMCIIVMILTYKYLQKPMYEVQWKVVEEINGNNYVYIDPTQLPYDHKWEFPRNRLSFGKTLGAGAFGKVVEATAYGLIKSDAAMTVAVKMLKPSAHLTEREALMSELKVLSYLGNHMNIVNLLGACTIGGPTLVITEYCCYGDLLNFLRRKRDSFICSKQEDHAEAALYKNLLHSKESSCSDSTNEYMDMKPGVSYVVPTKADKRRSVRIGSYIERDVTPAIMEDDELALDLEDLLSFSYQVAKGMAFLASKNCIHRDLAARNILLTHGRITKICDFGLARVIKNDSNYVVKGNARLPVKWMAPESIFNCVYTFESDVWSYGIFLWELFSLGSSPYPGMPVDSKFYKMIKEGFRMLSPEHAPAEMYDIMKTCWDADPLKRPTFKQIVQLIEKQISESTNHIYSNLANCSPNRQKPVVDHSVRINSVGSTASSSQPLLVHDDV
T3 sequence (P10721 26-976): as the sequence (P10721 26-976 D816V) above, with V791D counted along it
T4 sequence (P16234 24-1089): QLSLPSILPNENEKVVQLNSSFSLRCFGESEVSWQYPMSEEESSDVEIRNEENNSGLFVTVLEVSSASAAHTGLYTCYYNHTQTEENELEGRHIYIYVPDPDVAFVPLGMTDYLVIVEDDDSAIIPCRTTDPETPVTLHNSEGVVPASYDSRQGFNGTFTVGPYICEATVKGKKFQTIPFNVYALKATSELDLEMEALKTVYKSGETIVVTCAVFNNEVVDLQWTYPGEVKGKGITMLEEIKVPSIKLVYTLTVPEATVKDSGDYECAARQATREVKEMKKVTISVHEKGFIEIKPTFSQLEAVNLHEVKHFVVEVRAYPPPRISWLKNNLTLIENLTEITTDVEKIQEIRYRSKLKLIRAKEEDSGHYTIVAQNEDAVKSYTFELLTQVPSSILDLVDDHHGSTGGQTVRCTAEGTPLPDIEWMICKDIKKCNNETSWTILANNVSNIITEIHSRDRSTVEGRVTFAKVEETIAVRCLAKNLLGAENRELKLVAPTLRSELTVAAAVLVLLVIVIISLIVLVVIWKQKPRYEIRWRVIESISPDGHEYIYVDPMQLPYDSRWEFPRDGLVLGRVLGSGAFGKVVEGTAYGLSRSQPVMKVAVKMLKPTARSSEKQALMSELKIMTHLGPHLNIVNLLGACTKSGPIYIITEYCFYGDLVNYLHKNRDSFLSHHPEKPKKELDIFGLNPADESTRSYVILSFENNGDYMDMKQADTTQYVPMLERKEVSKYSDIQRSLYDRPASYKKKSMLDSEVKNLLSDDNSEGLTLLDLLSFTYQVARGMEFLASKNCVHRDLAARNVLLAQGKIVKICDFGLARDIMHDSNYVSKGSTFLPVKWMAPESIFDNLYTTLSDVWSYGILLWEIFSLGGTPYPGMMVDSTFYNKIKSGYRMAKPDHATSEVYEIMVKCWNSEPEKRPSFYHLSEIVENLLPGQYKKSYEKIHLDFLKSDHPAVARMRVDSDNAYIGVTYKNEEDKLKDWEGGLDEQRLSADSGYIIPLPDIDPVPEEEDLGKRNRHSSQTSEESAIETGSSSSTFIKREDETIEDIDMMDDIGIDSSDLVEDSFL
T1 sequence (P09619 33-1106): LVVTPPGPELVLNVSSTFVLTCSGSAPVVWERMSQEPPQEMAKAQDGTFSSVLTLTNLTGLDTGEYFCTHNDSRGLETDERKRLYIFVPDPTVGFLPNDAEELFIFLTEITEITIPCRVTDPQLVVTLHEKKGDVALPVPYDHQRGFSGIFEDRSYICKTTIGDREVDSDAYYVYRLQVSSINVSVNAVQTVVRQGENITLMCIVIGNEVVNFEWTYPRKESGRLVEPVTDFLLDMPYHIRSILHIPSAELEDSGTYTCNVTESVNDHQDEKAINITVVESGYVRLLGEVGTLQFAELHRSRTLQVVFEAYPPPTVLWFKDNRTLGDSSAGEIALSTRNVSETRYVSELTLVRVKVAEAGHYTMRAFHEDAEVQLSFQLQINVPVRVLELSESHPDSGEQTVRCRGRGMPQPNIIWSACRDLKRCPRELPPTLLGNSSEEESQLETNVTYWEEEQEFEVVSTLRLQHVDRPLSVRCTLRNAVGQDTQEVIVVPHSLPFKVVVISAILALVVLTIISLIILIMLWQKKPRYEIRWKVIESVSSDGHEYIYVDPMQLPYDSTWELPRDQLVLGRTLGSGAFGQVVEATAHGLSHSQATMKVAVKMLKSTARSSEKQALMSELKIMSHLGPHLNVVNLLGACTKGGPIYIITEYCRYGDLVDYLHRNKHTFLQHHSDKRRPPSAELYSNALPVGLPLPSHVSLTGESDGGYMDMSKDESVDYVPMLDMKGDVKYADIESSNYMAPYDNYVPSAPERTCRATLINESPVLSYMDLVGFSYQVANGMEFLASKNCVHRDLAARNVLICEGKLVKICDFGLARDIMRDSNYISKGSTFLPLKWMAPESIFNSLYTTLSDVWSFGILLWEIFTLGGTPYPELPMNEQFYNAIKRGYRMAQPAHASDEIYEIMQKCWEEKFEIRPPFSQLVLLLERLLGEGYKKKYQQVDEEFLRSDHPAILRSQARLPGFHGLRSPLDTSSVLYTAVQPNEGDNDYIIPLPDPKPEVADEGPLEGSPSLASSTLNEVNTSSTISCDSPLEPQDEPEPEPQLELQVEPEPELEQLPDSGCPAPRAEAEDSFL

SMILES | GI50 (Ba/F3-c-KIT(D816V)) | GI50 (Ba/F3-TEL-PDGFβ(WT)) | IC50 (human PDGFR-β(wt)) | IC50 (c-KIT D816V [1]) | IC50 (human c-KIT(wt)) | IC50 (human PDGFR-α(wt)) | GI50 (Ba/F3-TEL-PDGFRα(WT)) | GI50 (c-KIT V560G/D816V) | control percentage (% control), KIT (various kinases) | control percentage (% control), KIT (A829P) (various kinases) | control percentage (% control), KIT (D816H) (various kinases) | control percentage (% control), KIT (D816V) (various kinases) | control percentage (% control), KIT (L576P) (various kinases) | control percentage (% control), KIT (V559D) (various kinases) | GI50 (c-KIT D814Y) | other results
CCN(CC)CCOc1cc2ncnc(-c3ccc(NC(=O)Cc4ccc(C(F)(F)F)cc4)cc3)c2cc1OC [Example 1, N-(4-(7-(2-(diethylamino)ethoxy)-6-methoxyquinazolin-4-yl)phenyl)-2-(4-(trifluoromethyl)phenyl)acetamide] | ≤ 200 nM | ≤ 200 nM | ≤ 0.05 µM | ≤ 0.05 µM | ≤ 0.05 µM | ≤ 0.05 µM | ≤ 200 nM | ≤ 200 nM |  |  |  |  |  |  |  | 
COc1cc2c(-c3ccc(NC(=O)Cc4ccc(C(F)(F)F)cc4)cc3)ncnc2cc1OC1CCN(C)CC1 [Example 2, N-(4-(6-methoxy-7-((1-methylpiperidin-4-yl)oxy)quinazolin-4-yl)phenyl)-2-(4-(trifluoromethyl)phenyl)acetamide] | ≤ 200 nM | ≤ 200 nM | ≤ 0.05 µM | ≤ 0.05 µM | ≤ 0.05 µM | ≤ 0.05 µM | ≤ 200 nM | 200 to 500 nM |  |  |  |  |  |  |  | 
COc1cc2c(-c3ccc(NC(=O)Cc4ccc(C(F)(F)F)cc4)cc3)ncnc2cc1OCCN1CCN(C)CC1 [Example 3, N-(4-(6-methoxy-7-(2-(4-methylpiperazin-1-yl)ethoxy)quinazolin-4-yl)phenyl)-2-(4-(trifluoromethyl)phenyl)acetamide] | ≤ 200 nM | ≤ 200 nM | ≤ 0.05 µM | ≤ 0.05 µM | ≤ 0.05 µM | ≤ 0.05 µM | ≤ 200 nM | ≤ 200 nM | ⊚ | ⊚ | ⊚ | ⊚ | ⊚ | ⊚ | ≤ 200 nM | control percentage (% control), KIT (V559D, T670I) (various kinases; KIT (V559D, T670I)): ◯ (◯: 10% or more to less than 35%); control percentage (% control), KIT (V559D, V654A) (various kinases; KIT (V559D, V654A)): ⊚; control percentage (% control), KIT-autoinhibited (various kinases; KIT-autoinhibited): ◯ (◯: 10% or more to less than 35%); control percentage (% control), PDGFRA (various kinases; PDGFRA): ⊚; control percentage (% control), PDGFRB (various kinases; PDGFRB): ⊚
COc1cc2c(-c3ccc(NC(=O)Cc4ccc(C(F)(F)F)cc4)cc3)ncnc2cc1OCCCN1CCN(C)CC1 [Example 9, N-(4-(6-methoxy-7-(3-(4-methylpiperazin-1-yl)propoxy)quinazolin-4-yl)phenyl)-2-(4-(trifluoromethyl)phenyl)acetamide] | ≤ 200 nM | ≤ 200 nM | ≤ 0.05 µM | ≤ 0.05 µM | ≤ 0.05 µM | ≤ 0.05 µM | ≤ 200 nM | ≤ 200 nM | ⊚ | ⊚ | ⊚ | ⊚ | ◯ (◯: 10% or more to less than 35%) | ◯ (◯: 10% or more to less than 35%) | ≤ 200 nM | 
CCN(CC)CCCOc1cc2ncnc(-c3ccc(NC(=O)Cc4ccc(C(F)(F)F)cc4)cc3)c2cc1OC [Example 11, N-(4-(7-(3-(diethylamino)propoxy)-6-methoxyquinazolin-4-yl)phenyl)-2-(4-(trifluoromethyl)phenyl)acetamide] | ≤ 200 nM | ≤ 200 nM | ≤ 0.05 µM | ≤ 0.05 µM | ≤ 0.05 µM | ≤ 0.05 µM | ≤ 200 nM | ≤ 200 nM |  |  |  |  |  |  | ≤ 200 nM | 
Cc1ccc(NC(=O)c2ccc(CN3CCN(C)CC3)cc2)cc1Nc1nccc(-c2cccnc2)n1 [imatinib] |  |  |  |  |  |  |  |  |  |  |  |  |  |  |  | effect of inhibiting c-KIT D816V (c-KIT D816V [2]): no effect
